Data on one compound can be found in patent US20080176913A1, “TRANSDERMAL COMPOSITIONS OF PRAMIPEXOLE HAVING ENHANCED PERMEATION PROPERTIES” (priority 2006, published 2008).

For data set [1] the following is noted: oral administration, daily dose of about 1.5 to 4.5 mg; cited from earlier work.

Counter-ions that a name gives are not always drawn. Like-named read-outs stand apart in the source and are kept apart here.

By bioavailability is commonly meant dose-corrected exposure relative to a reference, in per cent. In the case of `CCCN[C@H]1CCc2nc(N)sc2C1` [pramipexole, (S)-2-amino-4,5,6,7-tetrahydro-6-(propylamino)benzothiazole dihydrochloride monohydrate], the ionization entry is, setting by setting: (at pH of about 8.0) “about 97%”; (at pH of about 10.5) “about 33%”. The bioavailability in data set [1] is 90%.
